# Source: PMC7828231, “Delphinidin Increases the Sensitivity of Ovarian Cancer Cell Lines to 3-bromopyruvate” (International Journal of Molecular Sciences, 2021)
# Where two headings read alike, the source gives them in different places.
# Tests used:
# Experiment in all cases: Cytotoxicity, Neutral Red survival assay
# Format in all cases: cell-based, human
# [1] = tested on: PEO1 cells; conditions: Homo sapiens
# Experimental: (§1) SKOV3 and PEO1 cells were seeded in a clear 96-well plate at a density of 1 × 10^4 cells/well in 100-µL culture medium. MRC-5 cells were seeded at a density of 7.5 × 10^3/well and allowed to attach for 24 h at 37 °C. After incubation, the cells were treated with delphinidin chloride in a concentration range of 10–100 µM and 3-BP at concentrations between 5–25 µM for PEO1 and 10–50 µM for MRC-5 and SKOV3. Nontreated cells were used as a control. Stock solutions of tested substances were prepared in DMSO and their working solutions in culture media. The DMSO concentration was adjusted to 0.2% in all samples, which had no significant effect on the treated cells. After 24-h exposure time, the medium was removed and replaced with 100 µL of […] neutral red solution, and the cells were incubated at 37 °C for 1 h. Then, the cells were washed with PBS; fixed with 100 µL/well of 50% ethanol, 49% H2O and 1% glacial acetic acid and shaken (700 rpm) at room temperature for 20 min. Absorbance was measured at 540 nm against 620 nm.
# [2] = tested on: SKOV3 cells; conditions: Homo sapiens
# Experimental: as §1
# [3] = tested on: MRC-5 fibroblasts; conditions: Homo sapiens, MRC5, read-out: IC50 of cell survival (extrapolated)
# Experimental: as §1
# [4] = PEO1, PEO1, extrapolated from data obtained in the concentration range of 1–100 µM, read-out: IC50 of cell survival (extrapolated)
# [5] = SK-OV-3, SKOV3, extrapolated from data obtained in the concentration range of 1–100 µM, read-out: IC50 of cell survival (extrapolated)
# [6] = PEO1, 24 h, PEO1, 24-h exposure, Neutral Red, ND = no reduction of survival in the concentration range studied, read-out: IC50 of cell survival
SMILES,"IC50 [1, 4] [µM]","IC50 [2, 5] [µM]","IC50 [1, 6] [µM]",other results
O=c1c(-c2ccc(O)cc2)coc2cc(O)ccc12 [Daidzein],> 100,> 100,–,–
O=c1c(-c2ccc(O)cc2)coc2cc(O)cc(O)c12 [Genistein],> 100,> 100,–,–
O=c1c(O)c(-c2cc(O)c(O)c(O)c2)oc2cc(O)cc(O)c12 [Myricetin],–,–,196,–
COc1cc(-c2[o+]c3cc(O)cc(O)c3cc2O)cc(OC)c1O [Malvidin chloride],–,–,–,"IC50 ([1]; PEO1, read-out: IC50 of cell survival (extrapolated)): > 100 µM; IC50 ([2]; SK-OV-3, 24 h, read-out: IC50 of cell survival): 90 µM; IC50 [3]: > 100 µM"
Oc1cc(O)c2cc(O)c(-c3ccc(O)c(O)c3)[o+]c2c1 [Cyanidin chloride],–,–,107,–
COc1c(O)cc2oc(-c3ccc(O)cc3)cc(=O)c2c1O [Hispidulin],–,–,–,"IC50 ([1]; PEO1, 24 h, read-out: IC50 of cell survival): 181 µM; IC50 ([2]; SK-OV-3, read-out: IC50 of cell survival (extrapolated)): > 100 µM"
